Data: patent US9580444B2, “Polycyclic pyrazolinone derivative and herbicide comprising same as effective component thereof” (priority 2013, dated 2017)

Assays:
Format in all cases: in vivo
corn [1] = experiment: Test Example-3: phytotoxicity by a treatment before weeds are generated under upland field conditions; conditions: 50 g a.i/ha; upland soil treatment before emergence; about 21 days after treatment; score 0-5
Description: (§1) Using the formulation prepared according to the methods described above, the herbicidal effect of the bicyclic pyrazolinone derivative of the invention according to the methods shown in Test Examples below was examined. The herbicidal effect with respect to the test weeds or the phytotoxicity with respect to the test crops was examined according to the following criteria, and evaluated in six stage scores of 0 to 5. A vat having an area of 81 cm^2 and a depth of 3.5 cm was filled with upland soil, then, seeds of Ipomoea purpurea (tall morning glory), Amaranthus viridis (green amaranthus), Abutilon theophrasti (velvetleaf), Chenopodium album (common lambsquarters), and corn were seeded thereto, and the seeds were covered with soil of about 0.5 cm. Next day, a wettable powder or an emulsifiable concentrate of the compound of the present invention prepared according to Formulation Example was diluted, and a spray treatment was uniformly performed on the covered oil so as to be a predetermined dosage. The herbicidal effect with respect to the test weeds and the phytotoxicity with respect to corn about 21 days after the treatment were evaluated according to the evaluation criteria in six stages of 0 to 5 described above.

corn [2] = experiment: Test Example-4: phytotoxicity by a foliage treatment after weeds are generated under upland field conditions; conditions: 500 g a.i/ha, foliage treatment after emergence, about 14 days after treatment, score 0-5
Outline: (§2)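 Weed seeds were sown in upland soil, covered with about 0.5 cm soil and grown 14 days with watering. Diluted wettable powder or emulsifiable concentrate was then sprayed uniformly on foliage at a set dosage in 4000 L water/ha. Weed control and corn injury were scored 0–5 about 14 days later.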

corn [3] = experiment: Test Example-5: phytotoxicity by a foliage treatment after weeds are generated under upland field conditions; conditions: 12.5 g a.i/ha, foliage treatment after emergence, about 14 days after treatment, score 0-5
Description: as §1, with “While watering was suitably performed on there, the seeds were grown for 14 days. A” for “Next day, a”, “foliage portion of the plant” for “covered oil”, “dosage in the amount of water of 4000 L per hectare.” for “dosage.”, “14” for “21”

[4] = test system: Amaranthus viridis (green amaranthus); experiment: Test Example-4: herbicidal effect by a foliage treatment after weeds are generated under upland field conditions; conditions: 500 g a.i/ha, foliage treatment after emergence, about 14 days after treatment, score 0-5
Outline: as §2

[5] = test system: Chenopodium album (common lambsquarters); experiment: as above; conditions: 500 g a.i/ha, foliage treatment after emergence, about 14 days after treatment, score 0-5
Outline: as §2

[6] = test system: Abutilon theophrasti (velvetleaf); experiment: as above; conditions: 500 g a.i/ha, foliage treatment after emergence, about 14 days after treatment, score 0-5
Outline: as §2

[7] = test system: Amaranthus viridis (green amaranthus); experiment: Test Example-5: herbicidal effect by a foliage treatment after weeds are generated under upland field conditions; conditions: 12.5 g a.i/ha, foliage treatment after emergence, about 14 days after treatment, score 0-5
Description: as §1, with “While watering was suitably performed on there, the seeds were grown for 14 days. A” for “Next day, a”, “foliage portion of the plant” for “covered oil”, “dosage in the amount of water of 4000 L per hectare.” for “dosage.”, “14” for “21”

[8] = test system: Chenopodium album (common lambsquarters); experiment: as above; conditions: 12.5 g a.i/ha, foliage treatment after emergence, about 14 days after treatment, score 0-5
Description: as §1, with “While watering was suitably performed on there, the seeds were grown for 14 days. A” for “Next day, a”, “foliage portion of the plant” for “covered oil”, “dosage in the amount of water of 4000 L per hectare.” for “dosage.”, “14” for “21”

[9] = test system: Ipomoea purpurea (tall morning glory); experiment: as above; conditions: 12.5 g a.i/ha, foliage treatment after emergence, about 14 days after treatment, score 0-5
Description: as §1, with “While watering was suitably performed on there, the seeds were grown for 14 days. A” for “Next day, a”, “foliage portion of the plant” for “covered oil”, “dosage in the amount of water of 4000 L per hectare.” for “dosage.”, “14” for “21”

[10] = test system: Abutilon theophrasti (velvetleaf); experiment: as above; conditions: 12.5 g a.i/ha, foliage treatment after emergence, about 14 days after treatment, score 0-5
Description: as §1, with “While watering was suitably performed on there, the seeds were grown for 14 days. A” for “Next day, a”, “foliage portion of the plant” for “covered oil”, “dosage in the amount of water of 4000 L per hectare.” for “dosage.”, “14” for “21”

[11] = test system: Amaranthus viridis (green amaranthus); experiment: Test Example-3: herbicidal effect by a treatment before weeds are generated under upland field conditions; conditions: 50 g a.i/ha; upland soil treatment before emergence; about 21 days after treatment; score 0-5
Description: as §1

[12] = test system: Chenopodium album (common lambsquarters); experiment: as above; conditions: 50 g a.i/ha; upland soil treatment before emergence; about 21 days after treatment; score 0-5
Description: as §1

[13] = test system: Ipomoea purpurea (tall morning glory); experiment: as above; conditions: 50 g a.i/ha; upland soil treatment before emergence; about 21 days after treatment; score 0-5
Description: as §1

[14] = test system: Abutilon theophrasti (velvetleaf); experiment: as above; conditions: 50 g a.i/ha; upland soil treatment before emergence; about 21 days after treatment; score 0-5
Description: as §1

corn [15] = experiment: Test Example-2: phytotoxicity by a soil treatment before weeds are generated under upland field conditions; conditions: application amount 500 g a.i/ha, soil spray treatment before weeds are generated, about 21 days after the treatment, score 0 to 5
Outline: (§3)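 Pre-emergence soil treatment: seeds sown in upland soil and covered with about 0.5 cm soil were sprayed the next day with diluted wettable powder or emulsifiable concentrate at a predetermined dosage. Weed control and corn injury were scored on a 0–5 scale about 21 days after treatment.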

[16] = test system: Amaranthus viridis (green amaranthus); experiment: Test Example-2: herbicidal effect by a soil treatment before weeds are generated under upland field conditions; conditions: application amount 500 g a.i/ha, soil spray treatment before weeds are generated, about 21 days after the treatment, score 0 to 5
Outline: as §3

[17] = test system: Chenopodium album (common lambsquarters); experiment: as above; conditions: application amount 500 g a.i/ha, soil spray treatment before weeds are generated, about 21 days after the treatment, score 0 to 5
Outline: as §3

[18] = test system: Eleocharis acicularis (needle spikerush); experiment: Test Example-1: herbicidal effect by a treatment before weeds are generated under submerged conditions; conditions: 500 g a.i/ha, pre-emergence treatment, about 15 days after treatment, score 0-5
Outline: (§4)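 Paddy soil in cups was puddled, seeded with the weeds and kept flooded; compound as wettable powder or emulsifiable concentrate was diluted and applied into the water on the seeding day at a set dosage. Effect was scored about 15 days later on a 0–5 scale.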

[19] = test system: Scirpus juncoides (bulrush); experiment: as above; conditions: 500 g a.i/ha, pre-emergence treatment, about 15 days after treatment, score 0-5
Outline: as §4

[20] = test system: Echinochloa oryzicola (barnyard grass); experiment: as above; conditions: 500 g a.i/ha, pre-emergence treatment, about 15 days after treatment, score 0-5
Outline: as §4

[21] = test system: Cyperus difformis (smallflower umbrella plant); experiment: as above; conditions: 500 g a.i/ha, pre-emergence treatment, about 15 days after treatment, score 0-5
Outline: as §4

[22] = test system: Monochoria vaginalis (monochoria); experiment: as above; conditions: 500 g a.i/ha, pre-emergence treatment, about 15 days after treatment, score 0-5
Outline: as §4

[23] = test system: other annual broad leaf weeds (Lindernia procumbens, Rotala indica, Elatine triandra); experiment: as above; conditions: 500 g a.i/ha, pre-emergence treatment, about 15 days after treatment, score 0-5
Outline: as §4

SMILES | Phytotoxicity Corn (corn [2]) | Herbicidal effect Amaranthus viridis [4] | Herbicidal effect Chenopodium album [5] | Herbicidal effect Abutilon theophrast [6] | Phytotoxicity Corn (corn [15]) | Herbicidal effect Amaranthus viridis [16] | Herbicidal effect Chenopodium album [17] | Herbicidal effect Eleocharis acicularis [18] | Herbicidal effect Scirpus juncoides [19] | Herbicidal effect Echinochloa oryzicola [20] | Herbicidal effect Cyperus difformis [21] | Herbicidal effect Monochoria vaginalis [22] | Herbicidal effect Broadleaf weed [23] | also measured
COC(=O)C=C(COc1cc(-c2c(Cl)n3n(c2=O)CCOCC3)c(F)cc1Cl)OC (mixture of isomers) [Example 2-3] | 1 (Herbicidal effect/phytotoxicity was 10% to 30%) | 5 (Herbicidal effect/phytotoxicity was 90% or greater) | 5 (Herbicidal effect/phytotoxicity was 90% or greater) | 5 (Herbicidal effect/phytotoxicity was 90% or greater) | – | – | – | – | – | – | – | – | – | Phytotoxicity Corn (corn [1]): 0 (Herbicidal effect/phytotoxicity was 0% to 10%); Phytotoxicity Corn (corn [3]): 0 (Herbicidal effect/phytotoxicity was 0% to 10%); Herbicidal effect Amaranthus viridis [7]: 5 (Herbicidal effect/phytotoxicity was 90% or greater); Herbicidal effect Chenopodium album [8]: 5 (Herbicidal effect/phytotoxicity was 90% or greater); Herbicidal effect Ipomoea purpurea [9]: 5 (Herbicidal effect/phytotoxicity was 90% or greater); Herbicidal effect Abutilon theophrasti [10]: 5 (Herbicidal effect/phytotoxicity was 90% or greater); Herbicidal effect Amaranthus viridis [11]: 5 (Herbicidal effect/phytotoxicity was 90% or greater); Herbicidal effect Chenopodium album [12]: 4 (Herbicidal effect/phytotoxicity was 70% to 90%); Herbicidal effect Ipomoea purpurea [13]: 2 (Herbicidal effect/phytotoxicity was 30% to 50%); Herbicidal effect Abutilon theophrast [14]: 5 (Herbicidal effect/phytotoxicity was 90% or greater)
C#CCOc1cc(-c2c(F)n3n(c2=O)CCCC3)c(Cl)cc1Cl [Example 1-358] | 1 (Herbicidal effect/phytotoxicity was 10% to 30%) | 5 (Herbicidal effect/phytotoxicity was 90% or greater) | 5 (Herbicidal effect/phytotoxicity was 90% or greater) | 5 (Herbicidal effect/phytotoxicity was 90% or greater) | 0 (Herbicidal effect/phytotoxicity was 0% to 10%) | 5 (Herbicidal effect/phytotoxicity was 90% or greater) | 5 (Herbicidal effect/phytotoxicity was 90% or greater) | 5 (Herbicidal effect/phytotoxicity was 90% or greater) | 5 (Herbicidal effect/phytotoxicity was 90% or greater) | 5 (Herbicidal effect/phytotoxicity was 90% or greater) | 5 (Herbicidal effect/phytotoxicity was 90% or greater) | 5 (Herbicidal effect/phytotoxicity was 90% or greater) | 5 (Herbicidal effect/phytotoxicity was 90% or greater) | –
C#CCOc1cc(-c2c(Cl)n3n(c2=O)CCOCC3)c(F)cc1F [Example 1-368] | 1 (Herbicidal effect/phytotoxicity was 10% to 30%) | 5 (Herbicidal effect/phytotoxicity was 90% or greater) | 5 (Herbicidal effect/phytotoxicity was 90% or greater) | 5 (Herbicidal effect/phytotoxicity was 90% or greater) | 0 (Herbicidal effect/phytotoxicity was 0% to 10%) | 5 (Herbicidal effect/phytotoxicity was 90% or greater) | 5 (Herbicidal effect/phytotoxicity was 90% or greater) | 5 (Herbicidal effect/phytotoxicity was 90% or greater) | 5 (Herbicidal effect/phytotoxicity was 90% or greater) | 5 (Herbicidal effect/phytotoxicity was 90% or greater) | 5 (Herbicidal effect/phytotoxicity was 90% or greater) | 5 (Herbicidal effect/phytotoxicity was 90% or greater) | 5 (Herbicidal effect/phytotoxicity was 90% or greater) | –
C=C(Cl)COc1cc(-c2c(Cl)n3n(c2=O)CCCC3)c(F)cc1Cl [Example 1-369] | 1 (Herbicidal effect/phytotoxicity was 10% to 30%) | 5 (Herbicidal effect/phytotoxicity was 90% or greater) | 5 (Herbicidal effect/phytotoxicity was 90% or greater) | 5 (Herbicidal effect/phytotoxicity was 90% or greater) | 0 (Herbicidal effect/phytotoxicity was 0% to 10%) | 5 (Herbicidal effect/phytotoxicity was 90% or greater) | 5 (Herbicidal effect/phytotoxicity was 90% or greater) | 5 (Herbicidal effect/phytotoxicity was 90% or greater) | 5 (Herbicidal effect/phytotoxicity was 90% or greater) | 5 (Herbicidal effect/phytotoxicity was 90% or greater) | 5 (Herbicidal effect/phytotoxicity was 90% or greater) | 5 (Herbicidal effect/phytotoxicity was 90% or greater) | 5 (Herbicidal effect/phytotoxicity was 90% or greater) | –
